Experimental data from patent US20240415828A1, “TLR7 AGONIST AND COMBINATIONS FOR CANCER TREATMENT” (BIONTECH SE, priority 2021, published 2024).

Test system: solid tumor
Assay: Clinical trial Part 1A, BNT411 monotherapy dose escalation
Type: in vivo, human
Procedure: FIG. 8. Release of certain cytokines from preparations obtained from whole blood of human patients treated with BNT411 at various dose levels. Mean maximum fold change (+SD) calculated from the highest cytokine value observed on day 1 in treatment cycle 1 relative to baseline. IFNα and IL-6 peaked 4 to 8 hours after treatment, IP-10 and TNFa peaked 2.5 to 8 hours after treatment.
To this end, a trial was designed to assess the safety profile of BNT411 in monotherapy and in combination with atezolizumab, etoposide, and carboplatin (atezo/EC) and to determine the maximum tolerated dose/recommended phase 2 dose (MTD/RP2D). This trial comprised two parts (1A and 1B) with dose escalation, wherein the patients of part 1A received BNT411 monotherapy and patients of part 1B received BNT411 together with atezolizumab, etoposide, and carboplatin. The patients had solid tumor (preferably ES-SCLC for part 1B) and received the drugs according to the following dosing schedule (until disease progression, unacceptable toxicity, or death): • Part 1A: 3-week cycles, BNT411 i.v. Q1W for 4 cycles, then Q3W • Part 1B: 3-week cycles, BNT411 i.v. Q1W for 4 cycles, then Q3W; atezo/EC Q3W
DL1-DL3 of Part 1A were single-patient cohorts, all other dose levels were 3+3 cohorts.
Efficacy was assessed by CT/MRI imaging according to RECIST 1.1 and iRECIST every 6 weeks for 48 weeks, and every 12 weeks thereafter. Safety was assessed by physical examination, vital signs, electrocardiogram, clinical laboratory assessments, eye examinations, ECOG, pregnancy testing, and ECHO/MUGA. Biomarker assessments included tumor biopsies and blood sampling for cytokine analysis, immune phenotyping, tumor mutational burden, and TCR profiling.
As of Aug. 26, 2021, the patients were located in seven trial centers (UK, USA, Spain, Germany). Twenty-five patients were screened (Part 1A: 22; Part 1B: 3) with seven screen failures (all Part 1A). Eighteen patients enrolled (Part 1A: 15; Part 1B: 3), wherein fifteen patients were evaluable (Part 1A: 12; Part 1B: 3). Two Part 1A patients were replaced (at DL1 due to incorrect dosing and at DL5 due to PD before DLT evaluation completed). One Part 1A patient dropped out of trial before receiving treatment.
The trial population consists of histologically confirmed solid tumor patients with metastatic or unresectable disease for which there is no available standard therapy likely to confer clinical benefit, or patients who are not candidates for such available therapy.

[1] = Part 1A, patients (%), as of Aug. 26, 2021
[2] = Part 1A, patients, as of Aug. 26, 2021

COCCc1nc2c(N)nc3ccccc3c2n1CCCCN(C(C)=O)C1CCOCC1 [BNT411]
cytokine changes (DL1A, DL2A, or DL3A (0.05-0.45 μg/kg)): No meaningful cytokine changes | induction of IFN-a and IP-10 (DL5 onwards, substantially starting at DL6, data update October 2022): increased | IL-6 induction (DL6A): some increase | IP-10 level relative to assay range (DL6A): upper limit of detection of the assay was reached | induction of IFNa, IP-10, and other mode-of-action relevant cytokines (DL6A (4.8 μg/kg)): substantial induction | tumor response (RECIST 1.1), third patient (DL7, trial Day 251, still on treatment): partial response | dose limiting toxicity (DLT), or related grade 4-5 AEs (Part 1A): no | TEAEs related to BNT411 monotherapy: Anaemia, Grade 4 [1]: 2 (13%) | TEAEs related to BNT411 monotherapy: Blood bilirubin increased, Grade 4 [1]: 1 (7%) | TEAEs related to BNT411 monotherapy: Chills, Grade 4 [1]: 2 (13%) | TEAEs related to BNT411 monotherapy: Diarrhoea, Grade 4 [1]: 1 (7%) | TEAEs related to BNT411 monotherapy: Fatigue, Grade 4 [1]: 1 (7%) | TEAEs related to BNT411 monotherapy: Headache, Grade 4 [1]: 1 (7%) | TEAEs related to BNT411 monotherapy: Hyperbilirubinaemia, Grade 4 [1]: 1 (7%) | TEAEs related to BNT411 monotherapy: Hypotension, Grade 4 [1]: 1 (7%) | TEAEs related to BNT411 monotherapy: Illness, Grade 4 [1]: 1 (7%) | TEAEs related to BNT411 monotherapy: Infusion related reaction, Grade 4 [1]: 1 (7%) | TEAEs related to BNT411 monotherapy: Nausea, Grade 4 [1]: 1 (7%) | TEAEs related to BNT411 monotherapy: Neutropenia, Grade 4 [1]: 1 (7%) | TEAEs related to BNT411 monotherapy: Pruritus, Grade 4 [1]: 1 (7%) | TEAEs related to BNT411 monotherapy: Pyrexia, Grade 4 [1]: 3 (20%) | TEAEs related to BNT411 monotherapy: Total number of patients with TEAEs, Grade 4 [1]: 7 (47%) | TEAEs related to BNT411 monotherapy: Anaemia, Grade 1 [2]: 1 | TEAEs related to BNT411 monotherapy: Anaemia, Grade 3 [2]: 1 | TEAEs related to BNT411 monotherapy: Blood bilirubin increased, Grade 1 [2]: 1 | TEAEs related to BNT411 monotherapy: Chills, Grade 1 [2]: 2 | TEAEs related to BNT411 monotherapy: Diarrhoea, Grade 2 [2]: 1 | TEAEs related to BNT411 monotherapy: Fatigue, Grade 2 [2]: 1 | TEAEs related to BNT411 monotherapy: Headache, Grade 1 [2]: 1 | TEAEs related to BNT411 monotherapy: Hyperbilirubinaemia, Grade 1 [2]: 1 | TEAEs related to BNT411 monotherapy: Hypotension, Grade 1 [2]: 1 | TEAEs related to BNT411 monotherapy: Illness, Grade 1 [2]: 1 | TEAEs related to BNT411 monotherapy: Infusion related reaction, Grade 2 [2]: 1 | TEAEs related to BNT411 monotherapy: Nausea, Grade 1 [2]: 1 | TEAEs related to BNT411 monotherapy: Neutropenia, Grade 1 [2]: 1 | TEAEs related to BNT411 monotherapy: Pruritus, Grade 1 [2]: 1 | TEAEs related to BNT411 monotherapy: Pyrexia, Grade 1 [2]: 1 | TEAEs related to BNT411 monotherapy: Pyrexia, Grade 2 [2]: 2 | safety profile (all doses tested as of Aug. 26, 2021 (up to DL6)): acceptable safety profile | time of IFNa and IL-6 peak after treatment (day 1, treatment cycle 1): 4 to 8 h | time of IP-10 and TNFa peak after treatment (day 1, treatment cycle 1): 2.5 to 8 h | AEs related to BNT411 monotherapy: chills, share of patients (grade 1, Part 1A DL1 and DL6): 13% | AEs related to BNT411 monotherapy: pyrexia, share of patients (grades 1 and 2, Part 1A DLs 1*, 2, and 6): 20% | AEs related to BNT411 monotherapy: anaemia, share of patients (grades 1 and 3, Part 1A DL4 and DL5): 13% | tumor response (RECIST 1.1), second patient (intermediate dose level between DL6 and DL7, as of Day 420): stable disease | change in sum of target lesion diameters compared with baseline, second patient (intermediate dose level between DL6 and DL7, trial Day 86): −26.2% | cytokine release (ten patients, DL4A, DL5A, DL6A): dose-dependent cytokine release | serious adverse events with a possible causal relationship to BNT411 monotherapy (two cases of infusion-related reaction, grades 1 and 2, same patient, Part 1A DL6): Two | tumor response (RECIST 1.1), patient started at DL4, increased to DL5 (C8D1) and DL6 (C12D1) (until trial Day 449, cutoff Oct. 13, 2022): stable disease | overall safety profile (up to DL6, data update October 2022): acceptable overall safety profile | TNFa induction levels (up to DL6A): remained unchanged
